Data from ChEMBL document CHEMBL1201862, “PubChem BioAssay data set” (2004).
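1) Cells in 96-well plates. 2) Compound, 48 h, 5 concentrations. 3) Linear interpolation between surrounding doses. 4) Unreached endpoint = highest concentration. The concentration for 50% growth inhibition is given as GI50.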 Activity calls are given as the source filed them. No stated cut-off is given here; in the data, active = GI50 up to about 1.1 µM and inactive = higher.

Legend:
Assay in all cases: NCI tumour cell line growth inhibition, 48 h
DLD-1 = system: DLD-1
M19-MEL = system: M19-MEL
KM-20L2 = system: KM-20L2
T47D = system: T47D
DU-145 = system: DU-145
MDA-N = system: MDA-N
DMS-114 = system: DMS-114
HOP-18 = system: HOP-18

Compound | GI50 (DLD-1) | GI50 (M19-MEL) | GI50 (KM-20L2) | GI50 (T47D) | GI50 (DU-145) | GI50 (MDA-N) | GI50 (DMS-114) | GI50 (HOP-18)
O=C1CCC2(c3ccc(F)cc3)Nc3ncccc3N12 (stereo unspecified) | > 100 µM (inactive) | > 100 µM (inactive) | > 100 µM (inactive) |  |  |  |  | 
CCOC(=O)c1c(CN2CCOCC2)n(Cc2ccccc2)c2c1cc(O)c1nc(C)c(C)nc12 |  |  |  | 20 µM (inactive) | 78.2 µM (inactive) | 72.8 µM (inactive) |  | 
N#C/N=C1/c2ccccc2/C(=N/C#N)c2cc(CO)ccc21 |  |  |  | 31.6 µM (inactive) | 26 µM (inactive) | 36.6 µM (inactive) |  | 
N#Cc1cc(C#N)c(N)nc1N |  |  |  |  | 43.6 µM (inactive) | > 100 µM (inactive) |  | 
COc1ccc(CC(COS(=O)(=O)c2ccc(C)cc2)NS(=O)(=O)c2ccc(C)cc2)cc1 (stereo unspecified) |  |  |  | 5.45 µM (inactive) | 10.8 µM (inactive) | 19.6 µM (inactive) |  | 
COc1ccc2c(C)c(Oc3c(Cl)c(Cl)c(O)c(C#N)c3C#N)oc2c1 |  |  |  | > 100 µM (inactive) | > 100 µM (inactive) | > 100 µM (inactive) |  | 
CN1C(=O)c2ccccc2OC12C=Cc1ccc(O)cc1O2 (stereo unspecified) |  |  |  | 13.8 µM (inactive) | 22.6 µM (inactive) | 31 µM (inactive) |  | 
COc1ccc(-c2nc(SCC(=O)N/N=C/c3ccc([N+](=O)[O-])cc3)[nH]c2-c2ccc(OC)cc2)cc1 |  |  |  | 15.8 µM (inactive) | 28 µM (inactive) | 3.16 µM (inactive) |  | 
CCCOC(=O)C1C2CCC(O2)C1C(=O)O (stereo unspecified) |  |  |  | > 100 µM (inactive) | > 100 µM (inactive) | > 100 µM (inactive) |  | 
Cc1cn(C2CC(O)C(Cn3nncc3Cn3ccc(=O)[nH]c3=O)O2)c(=O)[nH]c1=O (stereo unspecified) |  |  |  | > 100 µM (inactive) | > 100 µM (inactive) | > 100 µM (inactive) |  | 
COc1cc(/C=C2/SC(c3ccccc3)N(c3ccccc3)C2=O)cc(OC)c1OC (stereo unspecified) |  |  |  | 36.2 µM (inactive) | > 100 µM (inactive) |  |  | 
O=c1[nH]c(=O)n(C2OC(CO)C(O)C2O)cc1OCCc1ccccc1 (stereo unspecified) |  |  |  | > 100 µM (inactive) | > 100 µM (inactive) | > 100 µM (inactive) |  | 
O=C(CC1Sc2ccccc2NC1=O)Nc1cccc(Cl)c1 (stereo unspecified) | 48.4 µM (inactive) | 81.5 µM (inactive) | 38.2 µM (inactive) |  |  |  | 34.2 µM (inactive) | 
C=CCN1CN(C2CCCCC2)CSC1=S |  |  |  | 0.883 µM (active) | 2.23 µM (inactive) | 2.16 µM (inactive) |  | 
Cc1ccc(C(=O)Nc2ccc(CP(=O)(O)O)cc2)cc1NC(=O)c1cccc(N)c1 |  |  |  | > 100 µM (inactive) | > 100 µM (inactive) | > 100 µM (inactive) |  | 
Cc1cn(CC2=NCCN2)c(=O)[nH]c1=O |  |  |  | > 100 µM (inactive) | > 100 µM (inactive) | > 100 µM (inactive) |  | 

Compound | GI50 (DLD-1) | GI50 (M19-MEL) | GI50 (KM-20L2) | GI50 (T47D) | GI50 (DU-145) | GI50 (MDA-N) | GI50 (DMS-114) | GI50 (HOP-18)
COc1ccc(CN(CCN(C)C)c2ccccn2)cc1.Cn1c(=O)c2[nH]c(Br)nc2n(C)c1=O | > 100 µM (inactive) |  | > 100 µM (inactive) |  |  |  | > 100 µM (inactive) | > 100 µM (inactive)
CC1CC(C)CN(S(=O)(=O)c2cc(Cl)c(Oc3ccc([N+](=O)[O-])cc3Cl)c(Cl)c2)C1 (stereo unspecified) |  |  |  | > 100 µM (inactive) | > 100 µM (inactive) | > 100 µM (inactive) |  | 
CNc1ccc(Cl)cc1C(=O)N1CCC[C@H]1CO |  |  |  | > 100 µM (inactive) | > 100 µM (inactive) | > 100 µM (inactive) |  | 
CC(C)CCCC(C)[C@H]1CCC2[C@@H]3CCC4Cc5nc6c(nc5C[C@]4(C)C3CC[C@@]21C)CC1CC[C@@H]2C(CC[C@@]3(C)C2CC[C@@H]3C(C)CCCC(C)C)[C@@]1(C)C6 (stereo partly specified) |  |  |  | > 100 µM (inactive) | > 100 µM (inactive) | > 100 µM (inactive) |  | 
CCCCc1ccc(-n2sc3ncc([N+](=O)[O-])cc3c2=O)cc1 |  |  |  | 10.1 µM (inactive) | 23.3 µM (inactive) | 14.8 µM (inactive) |  | 
CC(C)[C@@H]1ON1C(C)c1ccccc1 (stereo partly specified) |  |  |  | > 100 µM (inactive) | > 100 µM (inactive) | > 100 µM (inactive) |  | 
CSc1c(C(N)=S)c(N)nn1-c1ccccc1 |  |  |  | > 100 µM (inactive) | > 100 µM (inactive) |  |  | 
COc1ccc2c(c1)C(=O)CCc1cc(OC)c(OC)c(OC)c1-2 |  |  |  |  | 0.0335 µM (active) |  |  | 
Cc1cc2c(C)nn(Cc3ccc(Cl)cc3Cl)c2c(C#N)c1C | > 100 µM (inactive) | > 100 µM (inactive) | > 100 µM (inactive) |  |  |  |  | > 100 µM (inactive)
COC12C=C(C)C(CC1)CC2C(=O)O (stereo unspecified) | > 100 µM (inactive) | > 100 µM (inactive) | > 100 µM (inactive) |  |  |  |  | > 100 µM (inactive)
COc1cc(OC)nc(NC(=O)NS(=O)(=O)c2cccc3ncn(C)c(=O)c23)n1 |  |  |  | > 100 µM (inactive) | > 100 µM (inactive) | > 100 µM (inactive) |  | 
O=S(=O)(O)c1cc(/N=N/c2c(O)ccc3ccccc23)ccc1/C=C/c1ccc(/N=N/c2c(O)ccc3ccccc23)cc1S(=O)(=O)O |  |  |  | > 100 µM (inactive) |  | > 100 µM (inactive) |  | 
Oc1cccc2ccc(Br)nc12 |  |  |  | 51.6 µM (inactive) | > 100 µM (inactive) | > 100 µM (inactive) |  | 
CCCCCCCC(=O)NS(=O)(=O)c1ccccc1 |  |  |  | > 100 µM (inactive) | > 100 µM (inactive) | > 100 µM (inactive) |  | 
CC(=O)Nc1ccc2cc(C)c(O)nc2n1 |  |  |  | > 100 µM (inactive) | > 100 µM (inactive) | > 100 µM (inactive) |  | 
